12 compounds from PubChem BioAssay (NCI) can be followed below.

Test systems include 786-0 renal; BT-549 breast; COLO 205 colon; EKVX NSCLC; HCT-116 colon; HOP-62 NSCLC; KM12 colon; NCI-H23 lung; NCI-H460 lung; NCI/ADR-RES ovarian; OVCAR-3 ovarian; SR leukemia; SW-620 colon; T-47D breast; UACC-62 melanoma.
Common to all, as to assay: NCI anticancer screen, dose series, 48 h

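Five concentrations, 48 hours, 96-well plates. TGI: total growth inhibition.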

For `CC(=O)Nc1cccc(N2C(=O)/C(=C\c3cccc(Oc4ccccc4)c3)SC2c2ccccc2)c1` (stereo not given), the TGI with 786-0 renal, in the test with BT-549 breast, in the test on COLO 205 colon, in the test with EKVX NSCLC, in the test on HCT-116 colon and with HOP-62 NSCLC was above 100 µM in each case. For the same compound, the TGI in the test with KM12 colon is above 100 µM; with NCI-H23 lung, above 100 µM; in the test with NCI-H460 lung, above 100 µM; in the test on NCI/ADR-RES ovarian, above 100 µM; in the test with OVCAR-3 ovarian it was above 100 µM; in the test on SR leukemia, 47.1 µM. Further, the TGI with SW-620 colon, in the test on T-47D breast and with UACC-62 melanoma was above 100 µM each time.
As for `O=C(Nc1ccccc1)Oc1ccc(C(=S)Nc2ccc(Br)cc2)cc1`, the TGI in the test on 786-0 renal is 52.2 µM; in the test on BT-549 breast, 36.6 µM; in the test on COLO 205 colon, 36.6 µM; in the test on EKVX NSCLC it was 31.1 µM; in the test with HCT-116 colon it was 37.2 µM; in the test with HOP-62 NSCLC, 82.1 µM. The TGI in the test on KM12 colon was found to be 32.4 µM; with NCI-H23 lung it was 37.2 µM; with NCI-H460 lung, 59.3 µM; in the test with NCI/ADR-RES ovarian, 39.7 µM; in the test on OVCAR-3 ovarian, 52.8 µM; with SR leukemia it was 50.8 µM. Also, the TGI was above 100 µM in the test on SW-620 colon, 75.1 µM with T-47D breast and 30 µM in the test on UACC-62 melanoma.
Turning to `CN1CCC(C(O)(c2ccccc2)c2ccc(Br)cc2)CC1` (stereo not given), the TGI with 786-0 renal was 27.5 µM; in the test with BT-549 breast, above 100 µM; in the test on COLO 205 colon it was 28.7 µM; in the test on EKVX NSCLC, above 100 µM; with HCT-116 colon, 51.1 µM; in the test with HOP-62 NSCLC it was 83.8 µM. Besides, the TGI with KM12 colon is 43.2 µM; in the test with NCI-H23 lung it was above 100 µM; in the test on NCI-H460 lung it was 62.5 µM; in the test with NCI/ADR-RES ovarian, above 100 µM; in the test on OVCAR-3 ovarian, above 100 µM; with SR leukemia, 47.6 µM. The figures for the TGI with SW-620 colon, with T-47D breast and in the test on UACC-62 melanoma were 61.1 µM, 78.3 µM and 30.1 µM, respectively.
As to `CC(Oc1ccc(Cl)cc1Cl)C(=O)NN1C(=O)CC(=O)N(c2ccccc2)C1=S` (stereo not given), the TGI with 786-0 renal, with BT-549 breast, in the test with COLO 205 colon, in the test with EKVX NSCLC, with HCT-116 colon and with HOP-62 NSCLC was above 100 µM throughout. For the same compound, the TGI is above 100 µM in the test on KM12 colon; above 100 µM with NCI-H23 lung; above 100 µM with NCI-H460 lung; above 100 µM in the test on NCI/ADR-RES ovarian; above 100 µM in the test with OVCAR-3 ovarian; 22.4 µM in the test on SR leukemia. In addition, the TGI with SW-620 colon, in the test on T-47D breast and in the test on UACC-62 melanoma was above 100 µM in each case.
On to `COC(=O)/C=C\C(C#N)(C#N)N=Cc1ccc(OC)cc1`, for which the TGI amounted to 4.62 µM in the test on 786-0 renal; 10.4 µM in the test on BT-549 breast; 3.47 µM in the test on COLO 205 colon; 32 µM with EKVX NSCLC; 3.77 µM in the test with HCT-116 colon; 33.9 µM with HOP-62 NSCLC. The TGI with KM12 colon was determined as 32.6 µM; in the test with NCI-H23 lung it was 28.3 µM; in the test on NCI-H460 lung it was 42.5 µM; in the test on NCI/ADR-RES ovarian, 9.09 µM; in the test on OVCAR-3 ovarian it was 6.64 µM; with SR leukemia, 3.99 µM. Further, the TGI amounted to 14.6 µM with SW-620 colon, 4.53 µM with T-47D breast and 30 µM with UACC-62 melanoma.
In the case of `O=C(Cc1nc2ccccc2[nH]c1=O)c1c[nH]c2ccccc12`, the TGI with 786-0 renal was 29.3 µM; in the test on BT-549 breast, 29.6 µM; with COLO 205 colon it was 28.9 µM; with EKVX NSCLC it was above 100 µM; in the test with HCT-116 colon, 56.2 µM; in the test with HOP-62 NSCLC, 68.2 µM. Moreover, the TGI with KM12 colon is 58 µM; in the test on NCI-H23 lung, above 100 µM; in the test with NCI-H460 lung it was 32.4 µM; in the test on NCI/ADR-RES ovarian, 28.5 µM; in the test on OVCAR-3 ovarian, 68 µM; in the test with SR leukemia, above 100 µM. Further, the TGI is above 100 µM in the test on SW-620 colon, 47.6 µM with T-47D breast and 29 µM in the test with UACC-62 melanoma.
As for `COc1ccc2nc3cc(Cl)ccc3c(NCCCN3CCN(CCCNc4ccc5nnn6c7ccccc7c(=O)c4c56)CC3)c2c1`, the TGI in the test with 786-0 renal is above 25 µM; in the test with BT-549 breast it was above 14.8 µM; in the test on COLO 205 colon, above 25 µM; with EKVX NSCLC, above 25 µM; with HCT-116 colon, above 20.2 µM; in the test on HOP-62 NSCLC, above 25 µM. The TGI with KM12 colon, with NCI-H23 lung, in the test with NCI-H460 lung, in the test with NCI/ADR-RES ovarian, with OVCAR-3 ovarian and in the test on SR leukemia was above 25 µM throughout. For the same compound, the TGI with SW-620 colon, with T-47D breast and in the test with UACC-62 melanoma was above 25 µM each time.
Consider `CC(Oc1ccccc1Cl)C(=O)NN1C(=O)CC(=O)N(c2ccc(Cl)cc2)C1=S` (stereo not given), for which the TGI in the test with 786-0 renal, in the test on BT-549 breast, in the test on COLO 205 colon, in the test with EKVX NSCLC, with HCT-116 colon and with HOP-62 NSCLC was above 100 µM throughout. Also, the TGI with KM12 colon was above 100 µM; in the test on NCI-H23 lung it was above 100 µM; with NCI-H460 lung it was above 100 µM; in the test on NCI/ADR-RES ovarian it was above 100 µM; with OVCAR-3 ovarian, above 100 µM; in the test on SR leukemia, 54.4 µM. Also, the TGI with SW-620 colon, in the test with T-47D breast and in the test on UACC-62 melanoma was above 100 µM throughout.
Take `Nc1nc(SCC(=O)c2ccc(Br)cc2)c2[nH]cnc2n1`: the TGI is above 100 µM with 786-0 renal; above 100 µM in the test on BT-549 breast; 46.8 µM with COLO 205 colon; above 100 µM with EKVX NSCLC; above 100 µM in the test with HCT-116 colon; above 100 µM in the test with HOP-62 NSCLC. The TGI was above 100 µM in the test with KM12 colon; above 100 µM in the test on NCI-H23 lung; above 100 µM in the test on NCI-H460 lung; 93.6 µM in the test on NCI/ADR-RES ovarian; above 100 µM with OVCAR-3 ovarian; above 100 µM with SR leukemia. Besides, the results for the TGI in the test on SW-620 colon, in the test on T-47D breast and in the test on UACC-62 melanoma were above 100 µM, 98.7 µM and above 100 µM, respectively.
On to `Oc1ccccc1C=Nc1ccc(-c2nc3ccccc3s2)cc1`, for which the TGI was above 100 µM in the test with 786-0 renal; above 100 µM with BT-549 breast; 40.9 µM in the test on COLO 205 colon; 85.2 µM in the test with EKVX NSCLC; above 100 µM in the test with HCT-116 colon; 52.2 µM with HOP-62 NSCLC. In addition, the TGI was above 100 µM in the test with KM12 colon; above 100 µM in the test on NCI-H23 lung; 83.5 µM in the test on NCI-H460 lung; above 100 µM with NCI/ADR-RES ovarian; 88 µM in the test on OVCAR-3 ovarian; above 100 µM in the test on SR leukemia. In addition, the figures for the TGI in the test with SW-620 colon, in the test with T-47D breast and in the test with UACC-62 melanoma were above 100 µM, 84.8 µM and 66.3 µM, respectively.
Turning to `COc1ccc(C2C3CCc4ccccc4C3=NN2S(=O)(=O)c2cccc(C(=O)O)c2OC)cc1` (stereo not given), the TGI in the test on 786-0 renal was above 100 µM; in the test on BT-549 breast it was above 100 µM; in the test with COLO 205 colon, 5.6 µM; with EKVX NSCLC, above 100 µM; in the test on HCT-116 colon it was above 100 µM; in the test with HOP-62 NSCLC, above 100 µM. For the same compound, the TGI with KM12 colon is above 100 µM; in the test with NCI-H23 lung it was above 100 µM; in the test on NCI-H460 lung, above 100 µM; in the test on NCI/ADR-RES ovarian it was 11.7 µM; with OVCAR-3 ovarian, 68.6 µM; in the test with SR leukemia it was above 100 µM. The TGI in the test on SW-620 colon, with T-47D breast and with UACC-62 melanoma was above 100 µM each time.
Consider `CC1=NN(c2nc(N)nc(/C(C#N)=C\c3ccc(-c4ccc([N+](=O)[O-])cc4)o3)n2)C(C)(C)C1`, for which the TGI is above 100 µM in the test with 786-0 renal; above 100 µM with BT-549 breast; above 100 µM in the test with COLO 205 colon; above 100 µM in the test with EKVX NSCLC; above 100 µM in the test on HCT-116 colon; 67.5 µM in the test on HOP-62 NSCLC. The TGI with KM12 colon, in the test with NCI-H23 lung, in the test with NCI-H460 lung, with NCI/ADR-RES ovarian, in the test with OVCAR-3 ovarian and in the test with SR leukemia was above 100 µM each time. Besides, the TGI in the test on SW-620 colon, with T-47D breast and in the test on UACC-62 melanoma was above 100 µM in each case.
